≈ marks a conversion by molar mass, not a printed value.
What was measured:
[1] = system: Staphylococcus pyogenes S-23; test: Infectious disease curing effect by oral administration in infected mice; type: in vivo, ICR male mice; conditions: Staphylococcus aureus, S23, 120 h; oral, 1 hour after abdominal inoculation of Staphylococcus pyogenes S-23, inspected for 5 days, Van der Waerden method; read-out: ED50
Description: A pre-incubated test microorganism, Staphylococcus pyogenes S-23, was suspended in a 5% mucin solution and inoculated into the ICR male mice (8 mice per group) abdomen in an amount of 2×10^2. After 1 hour, Compounds (I) of the present invention dissolved or suspended in a phosphate buffer were orally administered to the mice. The mice were inspected for 5 days to determine ED50 (mg/kg) by the Van der Waerden method.

[2] = system: Staphylococcus aureus MS 353 C36; test: Antimicrobial activity (minimum inhibitory concentration); type: cell-based; conditions: MS353C36; Staphylococcus aureus MS 353 C36, about 10^6 /ml
Description: (§1) Minimum inhibitory concentrations (MIC, μg/ml) of various compounds of formula (I) against various microorganisms (about 10^6 /ml) were measured.

[3] = system: Staphylococcus aureus MS 353; test: as above; type: cell-based; conditions: MS353; Staphylococcus aureus MS 353, about 10^6 /ml
Description: as §1

[4] = system: Staphylococcus aureus FDA 209P JC-1; test: as above; type: cell-based; conditions: FDA209P; Staphylococcus aureus FDA 209P JC-1, about 10^6 /ml
Description: as §1

[5] = system: Staphylococcus pyogenes N.Y.5; test: as above; type: cell-based; conditions: Staphylococcus pyogenes N.Y.5, about 10^6 /ml
Description: as §1

[6] = system: Staphylococcus epidermidis sp-al-1; test: as above; type: cell-based; conditions: SPAL1; Staphylococcus epidermidis sp-al-1, about 10^6 /ml
Description: as §1

[7] = system: Staphylococcus pyogenes S-23; test: as above; type: cell-based; conditions: Staphylococcus aureus, S23; Staphylococcus pyogenes S-23, about 10^6 /ml
Description: as §1

[8] = system: Staphylococcus aureus Smith; test: as above; type: cell-based; conditions: about 10^6 /ml
Description: as §1

[9] = system: Staphylococcus pyogenes 1022; test: as above; type: cell-based; conditions: Staphylococcus pyogenes 1022, about 10^6 /ml
Description: as §1

| SMILES | ED50 [1] [mg/kg] | MIC [2] [µg/mL] | MIC [3] [µg/mL] | MIC [4] [µg/mL] | MIC [5] [µg/mL] | MIC [6] [µg/mL] | MIC [7] [µg/mL] | MIC [8] [µg/mL] | MIC [9] [µg/mL] |
| --- | --- | --- | --- | --- | --- | --- | --- | --- | --- |
| CCC1OC(=O)CC(O)C(C)C(OC2OC(C)CC(N(C)C)C2O)C(CC=O)CC(C)C(=O)C=CC(C)=CC1COC1OC(C)C(O)C(OC)C1OC (stereo not shown) [4'-Deoxydesmycosin, reference compound] | > 200 |  |  |  |  |  |  |  |  |
| CCC1OC(=O)CC(O)C(C)C(OC2OC(C)C(O)C(N(C)C)C2O)C(CC=O)CC(C)C(OC)C=CC(C)=CC1COC1OC(C)C(O)C(OC)C1OC (stereo not shown) [Compound 1, 9-dihydro-9-O-methyldesmycosin] | 100 to 200 | 0.2 (≈ 0.254 µM) | 0.2 (≈ 0.254 µM) | 0.1 (≈ 0.127 µM) | ≤ 0.05 | ≤ 0.05 | ≤ 0.05 | 0.39 (≈ 0.495 µM) |  |
| CCOC1C=CC(C)=CC(COC2OC(C)C(O)C(OC)C2OC)C(CC)OC(=O)CC(O)C(C)C(OC2OC(C)C(O)C(N(C)C)C2O)C(CC=O)CC1C (stereo not shown) [Compound 2, 9-dihydro-9-O-ethyldesmycosin] |  | 0.1 (≈ 0.125 µM) | 0.2 (≈ 0.249 µM) | 0.1 (≈ 0.125 µM) | ≤ 0.05 | 0.1 (≈ 0.125 µM) | ≤ 0.05 | 0.2 (≈ 0.249 µM) | > 100 |
| CCCOC1C=CC(C)=CC(COC2OC(C)C(O)C(OC)C2OC)C(CC)OC(=O)CC(O)C(C)C(OC2OC(C)C(O)C(N(C)C)C2O)C(CC=O)CC1C (stereo not shown) [Compound 3, 9-dihydro-9-O-propyldesmycosin] |  | 0.2 (≈ 0.245 µM) | 0.2 (≈ 0.245 µM) | 0.1 (≈ 0.123 µM) | ≤ 0.05 | 0.2 (≈ 0.245 µM) | 0.1 (≈ 0.123 µM) | 0.39 (≈ 0.478 µM) | > 100 |
| CCCCOC1C=CC(C)=CC(COC2OC(C)C(O)C(OC)C2OC)C(CC)OC(=O)CC(O)C(C)C(OC2OC(C)C(O)C(N(C)C)C2O)C(CC=O)CC1C (stereo not shown) [Compound 4, 9-dihydro-9-O-butyldesmycosin] |  | 0.39 (≈ 0.47 µM) | 0.39 (≈ 0.47 µM) | 0.39 (≈ 0.47 µM) | 0.1 (≈ 0.12 µM) | 0.39 (≈ 0.47 µM) | 0.2 (≈ 0.241 µM) | 0.78 (≈ 0.94 µM) | > 100 |
| CCC(=O)OC1CC(=O)OC(CC)C(COC2OC(C)C(O)C(OC)C2OC)C=C(C)C=CC(OC)C(C)CC(CC=O)C(OC2OC(C)C(O)C(N(C)C)C2O)C1C (stereo not shown) [Compound 5, 9-dihydro-9-O-methyl-3-O-propionyldesmycosin] | 84 | 0.2 (≈ 0.237 µM) | 0.2 (≈ 0.237 µM) | 0.1 (≈ 0.118 µM) | 0.05 (≈ 0.0592 µM) | 0.2 (≈ 0.237 µM) | 0.1 (≈ 0.118 µM) | 0.39 (≈ 0.462 µM) | 50 (≈ 59.2 µM) |
| CCC1OC(=O)CC(O)C(C)C(OC2OC(C)CC(N(C)C)C2O)C(CC=O)CC(C)C(OC)C=CC(C)=CC1COC1OC(C)C(O)C(OC)C1OC (stereo not shown) [Compound 6, 9-dihydro-9-O-methyl-4'-deoxydesmycosin] | 64.8 | 0.2 (≈ 0.259 µM) | 0.2 (≈ 0.259 µM) | 0.1 (≈ 0.13 µM) | ≤ 0.05 | 0.1 (≈ 0.13 µM) | ≤ 0.05 | 0.39 (≈ 0.505 µM) |  |
| CCC1OC(=O)CC(O)C(C)C(OC2OC(C)CC(N(C)C)C2O)C(CC=O)CC(C)C(OC)C=CC(C)=CC1CN(C)C (stereo not shown) [Compound 7, 9-dihydro-9-O-methyl-23-demycinosyloxy-23-dimethylamino-4'-deoxydesmycosin] | 100 to 200 | 0.2 (≈ 0.32 µM) | 0.2 (≈ 0.32 µM) | 0.2 (≈ 0.32 µM) | 0.2 (≈ 0.32 µM) | 0.2 (≈ 0.32 µM) | 0.2 (≈ 0.32 µM) | 0.78 (≈ 1.25 µM) | > 100 |
| CCOC1C=CC(C)=CC(COC2OC(C)C(O)C(OC)C2OC)C(CC)OC(=O)CC(OC(C)=O)C(C)C(OC2OC(C)C(O)C(N(C)C)C2O)C(CC=O)CC1C (stereo not shown) [Compound 8, 9-dihydro-9-O-ethyl-3-O-acetyldesmycosin] | 50 | 0.39 (≈ 0.462 µM) | 0.39 (≈ 0.462 µM) | 0.2 (≈ 0.237 µM) | 0.1 (≈ 0.118 µM) | 0.39 (≈ 0.462 µM) | 0.1 (≈ 0.118 µM) | 0.78 (≈ 0.924 µM) | > 100 |
| CCCOC1C=CC(C)=CC(COC2OC(C)C(O)C(OC)C2OC)C(CC)OC(=O)CC(OC(C)=O)C(C)C(OC2OC(C)C(O)C(N(C)C)C2O)C(CC=O)CC1C (stereo not shown) [Compound 9, 9-dihydro-9--O-propyl-3-O-acetyldesmycosin] |  | 0.78 (≈ 0.909 µM) | 0.39 (≈ 0.455 µM) | 0.39 (≈ 0.455 µM) | 0.2 (≈ 0.233 µM) | 0.78 (≈ 0.909 µM) | 0.2 (≈ 0.233 µM) | 0.78 (≈ 0.909 µM) | > 100 |

Source: patent US5026832A, “9-dihydro-9-O-alkyldesmycosin derivatives” (Toyo Jozo Co., Ltd., priority 1988, dated 1991)
